System: not given
Assay: not given
Conditions: not given

| melting point | SMILES |
| --- | --- |
| 137 to 139 °C | COC(=O)c1cccc(Oc2cccc(-c3nn(Cc4ccc(C(F)(F)P(=O)(O)O)c(Cl)c4)c(=Nc4ccc(Cl)c(Cl)c4)s3)c2)c1 [Example 9, 3-{3-[4-[3-Chloro-4-(difluoro-phosphono-methyl)-benzyl]-5-(3,4-dichloro-phenylimino)-4,5-dihydro-[1,3,4]thiadiazol-2-yl]-phenoxy}-benzoic acid methyl ester] |
| 137 to 139 °C | COC(=O)c1cccc(Oc2cccc(-c3nn(Cc4ccc(C(F)(F)P(=O)(O)O)c(F)c4)c(=Nc4ccc(Cl)c(Cl)c4)s3)c2)c1 [Example 11, 3-(3-{5-(3,4-Dichloro-phenylimino)-4-[4-(difluoro-phosphono-methyl)-3-fluoro-benzyl]-4,5-dihydro-[1,3,4]thiadiazol-2-yl}-phenoxy)-benzoic acid methyl ester] |
| 153 to 156 °C | O=C(O)c1cccc(Oc2cccc(-c3nn(Cc4ccc(C(F)(F)P(=O)(O)O)c(F)c4)c(=Nc4ccc(Cl)c(Cl)c4)s3)c2)c1 [Example 10, 3-(3-{5-(3,4-Dichloro-phenylimino)-4-[4-(difluoro-phosphono-methyl)-3-fluoro-benzyl]-4,5-dihydro-[1,3,4]thiadiazol-2-yl}-phenoxy)-benzoic acid] |
| 212 to 215 °C | O=C(O)c1cccc(Oc2cccc(-c3nn(Cc4ccc(C(F)(F)P(=O)(O)O)c(Cl)c4)c(=Nc4ccc(Cl)c(Cl)c4)s3)c2)c1 [Example 8, 3-{3-[4-[3-Chloro-4-(difluoro-phosphono-methyl)-benzyl]-5-(3,4-dichloro-phenylimino)-4,5-dihydro-[1,3,4]thiadiazol-2-yl]-phenoxy}-benzoic acid] |
| 73 to 76 °C | COC(=O)c1cccc(Oc2cccc(-c3nnc(N(Cc4ccc(C(F)(F)P(=O)(O)O)c(Cl)c4)c4ccc(Cl)c(Cl)c4)s3)c2)c1 [Example 48, 3-(3-{5-[[3-Chloro-4-(difluoro-phosphono-methyl)-benzyl]-(3,4-dichloro-phenyl)-amino]-[1,3,4]thiadiazol-2-yl}-phenoxy)-benzoic acid methyl ester] |
| 178 to 180 °C | O=C(O)c1cccc(Oc2cccc(-c3nnc(N(Cc4ccc(C(F)(F)P(=O)(O)O)c(Cl)c4)c4ccc(Cl)c(Cl)c4)s3)c2)c1 [Example 46, 3-(3-{5-[[3-Chloro-4-(difluoro-phosphono-methyl)-benzyl]-(3,4-dichloro-phenyl)-amino]-[1,3,4]thiadiazol-2-yl}-phenoxy)-benzoic acid] |

System: FAO rat hepatoma cells
Assay: Cell based assays (IR phosphorylation assays)
Conditions: prodrug vs parent carboxylic-phosphonic acid
Excerpt: Antibodies and Chemicals. The antibody against phosphorylated insulin receptor (pIR) and the ELISA kit for detection of pIR were from Biosource (Camarillo, Calif.). Rabbit anti-IR/IGF-1R [pYpY1162/1163] phosphospecific antibody recognizes both the insulin receptor (IR) and the insulin-like growth factor-1 receptor (IGF-1R) phosphorylated at the active site tyrosine residues, 1162 and 1163 (1135 and 1136 for IGF-1R) (pIR/pIGF-1R). The Insulin Receptor [pYpY1162/1163] […] HRP-conjugated secondary antibodies were from Cell Signaling Technology (Beverly, Mass.). The ECL detection system was from Amersham (Buckinghamshire, UK), and human insulin was from Invitrogen (Carlsbad, Calif.).
Tissue Culture. FAO rat hepatoma cells were obtained from ECACC (#89042701) and maintained at 37° C. in a 5% CO2 environment in Dulbecco's modified Eagle's medium with high glucose (DMEM-high glucose) (4500 mg/liter) supplemented with 10% FBS and 50 units/ml penicillin, 100 µg/ml streptomycin and 0.292 mg/ml L-glutamine. For assays, cells were seeded in 24-well plates at a density of 2×10^5 cells/well and maintained until they reached confluency (about 3 days).
IR phosphorylation assays. Cells in 24-well plates were serum starved overnight in DMEM-low glucose (1000 mg/liter) without serum. […] The pIR/pIGF-1R signals were scanned (HP scanjet 3570c) and quantified (Scion Image). […]

| SMILES | increase in activity in a cell-based assay as compared to the parent carboxylic-phosphonic acid |
| --- | --- |
| CC(C)(C)C(=O)OCOC(=O)c1ccc(-c2csc(NCc3ccc(C(F)(F)P(=O)(O)OCOC(=O)C(C)(C)C)c(Br)c3)n2)cc1 [4-[2-(3-Bromo-4-{[(2,2-dimethyl-propionyloxymethoxy)-hydroxy-phosphoryl]-difluoro-methyl}-benzylamino)-thiazol-4-yl]-benzoic acid 2,2-dimethyl-propionyloxymethyl ester] | ~10 fold |
